In the NIST ThermoML archive (doi:10.1021/acs.jced.9b00377):
Numbers after ± are expanded uncertainties.

How the values were obtained:
[1] = refractive index (Na D-line) (dimensionless); conditions: 100 kPa, Liquid, Standard Abbe refractometry
[2] = for viscosity: Falling or rolling sphere viscometry; for speed of sound: Single path-length method

CCCC(=O)[O-].CN(C)C(=[NH2+])N(C)C [1,1,3,3-tetramethylguanidinium butanoate]
[1]
Conditions	refractive index
293.15 K	1.4823 ± 0.01
298.15 K	1.4809 ± 0.01
303.15 K	1.4794 ± 0.01
308.15 K	1.4781 ± 0.01
313.15 K	1.4766 ± 0.01
318.15 K	1.4753 ± 0.01
323.15 K	1.474 ± 0.01
328.15 K	1.4727 ± 0.01
333.15 K	1.4716 ± 0.01
338.15 K	1.4704 ± 0.01
343.15 K	1.4693 ± 0.01

[2], 100 kPa, Liquid
Conditions	speed of sound [m/s]	viscosity [mPa·s]
293.15 K	1593.6 ± 50	2480 ± 1000
298.15 K	1576.5 ± 50	1638 ± 680
303.15 K	1559.4 ± 50	1049 ± 430
308.15 K	1542.3 ± 50	694.1 ± 280
313.15 K	1525.1 ± 50	453.1 ± 180
318.15 K	1508 ± 50	318.2 ± 130
323.15 K	1490.9 ± 50	223.5 ± 90
328.15 K	1475.5 ± 50	158.5 ± 64
333.15 K	1458.4 ± 50	114 ± 46
338.15 K	1441.3 ± 50	88.1 ± 35
343.15 K	1424.1 ± 50	65.7 ± 26

[2], 100 kPa, Liquid, Vibrating tube method
Conditions	mass density [kg/m3]
293.15 K	1032.2 ± 2.2
298.15 K	1028.74 ± 2.2
303.15 K	1025.27 ± 2.2
308.15 K	1021.74 ± 2.2
313.15 K	1018.24 ± 2.1
318.15 K	1014.77 ± 2.1
323.15 K	1011.3 ± 2.1
328.15 K	1007.79 ± 2.1
333.15 K	1004.24 ± 2.1
338.15 K	1000.67 ± 2.1
343.15 K	997.07 ± 2.1

CCCCCCC(=O)[O-].CN(C)C(=[NH2+])N(C)C [1,1,3,3-tetramethylguanidinium heptanoate]
[1]
Conditions	refractive index
293.15 K	1.4792 ± 0.01
298.15 K	1.4776 ± 0.01
303.15 K	1.4759 ± 0.01
308.15 K	1.474 ± 0.01
313.15 K	1.4722 ± 0.01
318.15 K	1.4707 ± 0.01
323.15 K	1.4689 ± 0.01
328.15 K	1.4674 ± 0.01
333.15 K	1.4656 ± 0.01
338.15 K	1.464 ± 0.01
343.15 K	1.4628 ± 0.01

[2], 100 kPa, Liquid
Conditions	speed of sound [m/s]	viscosity [mPa·s]
293.15 K	1535.5 ± 50	1827 ± 760
298.15 K	1517.9 ± 50	1144 ± 470
303.15 K	1500.2 ± 50	740.8 ± 300
308.15 K	1482.5 ± 50	493.9 ± 200
313.15 K	1464.8 ± 50	336.9 ± 140
318.15 K	1447.2 ± 50	242.3 ± 98
323.15 K	1429.5 ± 50	172.9 ± 70
328.15 K	1413.6 ± 50	126.7 ± 51
333.15 K	1395.9 ± 50	94.4 ± 38
338.15 K	1378.2 ± 50	71.6 ± 29
343.15 K	1360.6 ± 50	55.8 ± 22

[2], 100 kPa, Liquid, Vibrating tube method
Conditions	mass density [kg/m3]
293.15 K	986.16 ± 2.1
298.15 K	982.69 ± 2.1
303.15 K	979.2 ± 2.1
308.15 K	975.61 ± 2.1
313.15 K	972.09 ± 2.1
318.15 K	968.56 ± 2.1
323.15 K	965 ± 2.1
328.15 K	961.39 ± 2.1
333.15 K	957.74 ± 2.1
338.15 K	954.06 ± 2.1
343.15 K	950.35 ± 2.1

CCCCCC(=O)[O-].CN(C)C(=[NH2+])N(C)C [1,1,3,3-tetramethylguanidinium hexanoate]
[1]
Conditions	refractive index
293.15 K	1.4701 ± 0.01
298.15 K	1.4684 ± 0.01
303.15 K	1.466 ± 0.01
308.15 K	1.4638 ± 0.01
313.15 K	1.4619 ± 0.01
318.15 K	1.4601 ± 0.01
323.15 K	1.458 ± 0.01
328.15 K	1.4563 ± 0.01
333.15 K	1.4544 ± 0.01
338.15 K	1.4528 ± 0.01
343.15 K	1.4511 ± 0.01

[2], 100 kPa, Liquid
Conditions	speed of sound [m/s]	viscosity [mPa·s]
293.15 K	1539 ± 50	1534 ± 640
298.15 K	1522.2 ± 50	1001 ± 410
303.15 K	1505.5 ± 50	657.8 ± 270
308.15 K	1488.8 ± 50	442.1 ± 180
313.15 K	1472.1 ± 50	309.8 ± 130
318.15 K	1455.4 ± 50	221.1 ± 89
323.15 K	1438.7 ± 50	159.5 ± 64
328.15 K	1423.6 ± 50	118.5 ± 48
333.15 K	1406.9 ± 50	89.4 ± 36
338.15 K	1390.2 ± 50	69.3 ± 28
343.15 K	1373.5 ± 50	54 ± 22

[2], 100 kPa, Liquid, Vibrating tube method
Conditions	mass density [kg/m3]
293.15 K	997.51 ± 2.1
298.15 K	994.1 ± 2.1
303.15 K	990.61 ± 2.1
308.15 K	987.16 ± 2.1
313.15 K	983.73 ± 2.1
318.15 K	980.29 ± 2.1
323.15 K	976.82 ± 2.1
328.15 K	973.32 ± 2.1
333.15 K	969.78 ± 2.1
338.15 K	966.22 ± 2.1
343.15 K	962.63 ± 2.1

CN(C)C(=[NH2+])N(C)C.O=C([O-])O [1,1,3,3-tetramethylguanidinium hydrogen carbonate]
Conditions	mass density [kg/m3]
[2], 173 K, 101.33 kPa, Crystal, X-ray diffraction	1213 ± 12

CCCCCCCC(=O)[O-].CN(C)C(=[NH2+])N(C)C [1,1,3,3-tetramethylguanidinium octanoate]
[1]
Conditions	refractive index
293.15 K	1.4678 ± 0.01
298.15 K	1.4657 ± 0.01
303.15 K	1.4631 ± 0.01
308.15 K	1.4612 ± 0.01
313.15 K	1.4589 ± 0.01
318.15 K	1.4565 ± 0.01
323.15 K	1.4544 ± 0.01
328.15 K	1.4523 ± 0.01
333.15 K	1.4501 ± 0.01
338.15 K	1.4482 ± 0.01
343.15 K	1.4463 ± 0.01

[2], 100 kPa, Liquid
Conditions	speed of sound [m/s]	viscosity [mPa·s]
293.15 K	1497.3 ± 50	1093 ± 450
298.15 K	1481.3 ± 50	737.2 ± 300
303.15 K	1465.4 ± 50	506.8 ± 210
308.15 K	1449.4 ± 50	347.6 ± 140
313.15 K	1433.5 ± 50	249.6 ± 100
318.15 K	1417.5 ± 50	186.8 ± 75
323.15 K	1401.6 ± 50	138.8 ± 56
328.15 K	1387.2 ± 50	105.7 ± 42
333.15 K	1371.3 ± 50	81.2 ± 32
338.15 K	1355.3 ± 50	65 ± 26
343.15 K	1339.4 ± 50	52.5 ± 21

[2], 100 kPa, Liquid, Vibrating tube method
Conditions	mass density [kg/m3]
293.15 K	969.06 ± 2.1
298.15 K	965.65 ± 2.1
303.15 K	962.28 ± 2.1
308.15 K	958.95 ± 2.1
313.15 K	955.63 ± 2.1
318.15 K	952.3 ± 2.1
323.15 K	948.95 ± 2.1
328.15 K	945.59 ± 2.1
333.15 K	942.23 ± 2.1
338.15 K	938.85 ± 2.1
343.15 K	935.46 ± 2.1

CCCCC(=O)[O-].CN(C)C(=[NH2+])N(C)C [1,1,3,3-tetramethylguanidinium pentanoate]
[1]
Conditions	refractive index
293.15 K	1.4776 ± 0.01
298.15 K	1.4758 ± 0.01
303.15 K	1.4736 ± 0.01
308.15 K	1.4718 ± 0.01
313.15 K	1.4699 ± 0.01
318.15 K	1.4681 ± 0.01
323.15 K	1.4664 ± 0.01
328.15 K	1.4648 ± 0.01
333.15 K	1.4633 ± 0.01
338.15 K	1.4615 ± 0.01
343.15 K	1.46 ± 0.01

[2], 100 kPa, Liquid
Conditions	speed of sound [m/s]	viscosity [mPa·s]
293.15 K	1540.6 ± 50	1241 ± 510
298.15 K	1524.7 ± 50	797.9 ± 330
303.15 K	1508.7 ± 50	561.1 ± 230
308.15 K	1492.8 ± 50	382.2 ± 150
313.15 K	1476.8 ± 50	268.2 ± 110
318.15 K	1460.8 ± 50	199.7 ± 80
323.15 K	1444.9 ± 50	147.7 ± 59
328.15 K	1430.5 ± 50	111.4 ± 45
333.15 K	1414.6 ± 50	85.2 ± 34
338.15 K	1398.6 ± 50	67.7 ± 27
343.15 K	1382.7 ± 50	54 ± 22

[2], 100 kPa, Liquid, Vibrating tube method
Conditions	mass density [kg/m3]
293.15 K	1010.3 ± 2.1
298.15 K	1006.9 ± 2.1
303.15 K	1003.4 ± 2.1
308.15 K	1000 ± 2.1
313.15 K	996.64 ± 2.1
318.15 K	993.25 ± 2.1
323.15 K	989.84 ± 2.1
328.15 K	986.42 ± 2.1
333.15 K	982.98 ± 2.1
338.15 K	979.53 ± 2.1
343.15 K	976.07 ± 2.1
